# Results: patent US20050004134A1, “Thiazole derivative and pharmaceutical use thereof” (priority 2001, published 2005)
row,melting point [°C],SMILES
1,155 to 157,"CC(C)n1nc(-c2sc(NC(=O)CN(C)CCN(C)C)nc2-c2ccccc2)ccc1=O [Example 118, 2-[(2-(Dimethylamino)ethyl)(methyl)amino]-N-[5-(1-isopropyl-6-oxo-1,6-dihydro-3-pyridazinyl)-4-phenyl-1,3-thiazol-2-yl]acetamide]"
2,167 to 168,"COCCNCCC(=O)Nc1nc(-c2ccccc2)c(-c2ccc(=O)n(C(C)C)n2)s1 [Example 122, N-[5-(1-Isopropyl-6-oxo-1,6-dihydro-3-pyridazinyl)-4-phenyl-1,3-thiazol-2-Yl]-3-[(2-methoxyethyl)amino]propanamide]"
3,200 to 201,"CC(C)n1nc(-c2sc(NC(=O)CCNCc3ccccn3)nc2-c2ccccc2)ccc1=O [Example 124, N-[5-(1-Isopropyl-6-oxo-1,6-dihydro-3-pyridazinyl)-4-phenyl-1,3-thiazol-2-yl]-3-[(2-pyridinylmethyl)amino]propanamide]"
4,> 250,"CC(C)n1nc(-c2sc(NC(=O)c3ccc(Cn4ccnc4)cc3)nc2-c2ccccc2)ccc1=O [Example 139, 4-(1H-Imidazol-1-ylmethyl)-N-[5-(1-isopropyl-6-oxo-1,6-dihydro-3-pyridazinyl)-4-phenyl-1,3-thiazol-2-yl]benzamide]"
5,158 to 160,"CCN(CC)CCNCc1ccc(C(=O)Nc2nc(-c3ccccc3)c(-c3ccc(=O)n(C(C)C)n3)s2)cc1 [Example 142, 4-({[2-(Diethylamino)ethyl]amino}methyl)-N-[5-(1-isopropyl-6-oxo-1,6-dihydro-3-pyridazinyl)-4-phenyl-1,3-thiazol-2-yl]benzamide]"
6,108 to 110,"CC(C)n1nc(-c2sc(NC(=O)c3ccc(CNCCCN(C)C)cc3)nc2-c2ccccc2)ccc1=O [Example 143, 4-({[3-(Dimethylamino)propyl]amino}methyl)-N-[5-(1-isopropyl-6-oxo-1,6-dihydro-3-pyridazinyl)-4-phenyl-1,3-thiazol-2-yl]benzamide]"
7,134 to 136,"CC(C)n1nc(-c2sc(NC(=O)c3ccc(CNCCN4CCCCC4)cc3)nc2-c2ccccc2)ccc1=O [Example 144, N-[5-(1-Isopropyl-6-oxo-1,6-dihydro-3-pyridazinyl)-4-phenyl-1,3-thiazol-2-yl]-4-({[2-(1-piperidinyl)ethyl]amino}methyl)benzamide]"
8,153 to 154,"CCOCCNCc1ccc(C(=O)Nc2nc(-c3ccccc3)c(-c3ccc(=O)n(C(C)C)n3)s2)cc1 [Example 145, 4-{[(2-Ethoxyethyl)amino]methyl}-N-[5-(1-isopropyl-6-oxo-1,6-dihydro-3-pyridazinyl)-4-phenyl-1,3-thiazol-2-yl]benzamide]"
9,172 to 174,"CC(C)n1nc(-c2sc(NC(=O)c3ccc(CN(C)CCc4ccccn4)cc3)nc2-c2ccccc2)ccc1=O [Example 147, N-[5-(1-Isopropyl-6-oxo-1,6-dihydro-3-pyridazinyl)-4-phenyl-1,3-thiazol-2-yl]-4-({methyl[2-(2-pyridinyl)ethyl]amino}methyl)benzamide]"
10,139 to 141,"CC(C)NCc1ccc(C(=O)Nc2nc(-c3ccccc3)c(-c3ccc(=O)n(C(C)C)n3)s2)cc1 [Example 152, 4-[(Isopropylamino)methyl]-N-[5-(1-isopropyl-6-oxo-1,6-dihydro-3-pyridazinyl)-4-phenyl-1,3-thiazol-2-yl]benzamide]"
11,222 to 223,"CC(C)n1nc(-c2sc(C(N)=O)nc2-c2ccccc2)ccc1=O [Example 161, 5-(1-Isopropyl-6-oxo-1,6-dihydro-3-pyridazinyl)-4-phenyl-1,3-thiazole-2-carboxamide]"
12,213 to 215,"CC(C)n1nc(-c2sc(C(N)=O)nc2-c2ccccc2F)ccc1=O [Example 163, 4-(2-Fluorophenyl)-5-(1-isopropyl-6-oxo-1,6-dihydro-3-pyridazinyl)-1,3-thiazole-2-carboxamide]"
13,248 to 250,"CC(C)n1nc(-c2sc(C(N)=O)nc2-c2cccc(F)c2)ccc1=O [Example 164, 4-(3-Fluorophenyl)-5-(1-isopropyl-6-oxo-1,6-dihydro-3-pyridazinyl)-1,3-thiazole-2-carboxamide]"
14,232 to 234.5,"CC(C)n1nc(-c2sc(C(N)=O)nc2-c2cccc(Cl)c2)ccc1=O [Example 166, 4-(3-Chlorophenyl)-5-(1-isopropyl-6-oxo-1,6-dihydro-3-pyridazinyl)-1,3-thiazole-2-carboxamide]"
15,201 to 202,"CCCn1nc(-c2sc(C(N)=O)nc2-c2ccccc2)ccc1=O [Example 167, 5-(6-oxo-1-propyl-1,6-dihydro-3-pyridazinyl)-4-phenyl-1,3-thiazole-2-carboxamide]"
16,108 to 109,"CCCNC(=O)c1nc(-c2ccccc2)c(-c2ccc(=O)n(C)n2)s1 [Example 170, 5-(1-methyl-6-oxo-1,6-dihydro-3-pyridazinyl)-4-phenyl-N-propyl-1,3-thiazole-2-carboxamide]"
17,106.5 to 107.5,"CCCNC(=O)c1nc(-c2ccccc2)c(-c2ccc(=O)n(CC)n2)s1 [Example 171, 5-(1-ethyl-6-oxo-1,6-dihydro-3-pyridazinyl)-4-phenyl-N-propyl-1,3-thiazole-2-carboxamide]"

# The next lines start with the compound.
row,SMILES,melting point [°C]
1,"CC(C)n1nc(-c2sc(NC(=O)CNCc3ccccc3)nc2-c2ccccc2)ccc1=O [Example 103, 2-(Benzylamino)-N-[5-(1-isopropyl-6-oxo-1,6-dihydro-3-pyridazinyl)-4-phenyl-1,3-thiazol-2-yl]acetamide]",144 to 145
2,"CC(C)n1nc(-c2sc(NC(=O)CN(C)CCc3ccccn3)nc2-c2ccccc2)ccc1=O [Example 111, N-[5-(1-Isopropyl-6-oxo-1,6-dihydro-3-pyridazinyl)-4-phenyl-1,3-thiazol-2-yl]-2-{methyl[2-(2-pyridinyl)ethyl]amino}acetamide]",94 to 96
3,"CC(C)n1nc(-c2sc(NC(=O)CNCCO)nc2-c2ccccc2)ccc1=O [Example 117, 2-[(2-Hydroxyethyl)amino]-N-[5-(1-isopropyl-6-oxo-1,6-dihydro-3-pyridazinyl)-4-phenyl-1,3-thiazol-2-yl]acetamide]",142 to 144
4,"CC(C)n1nc(-c2sc(NC(=O)CNCc3cccnc3)nc2-c2ccccc2)ccc1=O [Example 120, N-[5-(1-Isopropyl-6-oxo-1,6-dihydro-3-pyridazinyl)-4-phenyl-1,3-thiazol-2-yl]-2-[(3-pyridinylmethyl)amino]acetamide]",156 to 158
5,"CC(C)n1nc(-c2sc(NC(=O)CCN3CCOCC3)nc2-c2ccccc2)ccc1=O [Example 123, N-[5-(1-Isopropyl-6-oxo-1,6-dihydro-3-pyridazinyl)-4-phenyl-1,3-thiazol-2-yl]-3-(4-morpholinyl)propanamide]",197 to 198
6,"CC(C)n1nc(-c2sc(NC(=O)CN3CCCCC3)nc2-c2ccccc2)ccc1=O [Example 132, N-[5-(1 Isopropyl-6-oxo-1,6-dihydro-3-pyridazinyl)-4-phenyl-1,3-thiazol-2-yl]-2-(1-piperidinyl)acetamide]",189 to 190
7,"CC(C)n1nc(-c2sc(NC(=O)c3ccc(CN(C)CCN(C)C)cc3)nc2-c2ccccc2)ccc1=O [Example 137, 4-{[[2-(Dimethylamino)ethyl] (methyl)amino]methyl}-N-[5-(1-isopropyl-6-oxo-1,6-dihydro-3-pyridazinyl)-4-phenyl-1,3-thiazol-2-yl]benzamide]",131 to 133
8,"CC(C)n1nc(-c2sc(NC(=O)c3ccc(CNCCO)cc3)nc2-c2ccccc2)ccc1=O [Example 138, 4-{[(2-Hydroxyethyl)amino]methyl}-N-[5-(1-isopropyl-6-oxo-1,6-dihydro-3-pyridazinyl)-4-phenyl-1,3-thiazol-2-yl]benzamide]",111 to 113
9,"CC(C)n1nc(-c2sc(NC(=O)c3ccc(CNCCN4CCOCC4)cc3)nc2-c2ccccc2)ccc1=O [Example 140, N-[5-(1-Isopropyl-6-oxo-1,6-dihydro-3-pyridazinyl)-4-phenyl-1,3-thiazol-2-yl]-4-({[2-(4-morpholinyl)ethyl]amino}methyl)benzamide]",86 to 88
10,"CC(=O)N1CCN(CC(=O)Nc2nc(-c3ccccc3)c(-c3ccc(=O)n(C(C)C)n3)s2)CC1 [Example 150, 2-(4-Acetyl-1-piperazinyl)-N-[5-(1-isopropyl-6-oxo-1,6-dihydro-3-pyridazinyl)-4-phenyl-1,3-thiazol-2-yl]acetamide]",220 to 222
11,"NC(=O)c1nc(-c2ccccc2)c(-c2ccc(=O)[nH]n2)s1 [Example 158, 5-(6-oxo-1,6-dihydro-3-pyridazinyl)-4-phenyl-1,3-thiazole-2-carboxamide]",> 250
12,"Cn1nc(-c2sc(C(N)=O)nc2-c2ccccc2)ccc1=O [Example 159, 5-(1-methyl-6-oxo-1,6-dihydro-3-pyridazinyl)-4-phenyl-1,3-thiazole-2-carboxamide]",231 to 232
13,"CCn1nc(-c2sc(C(N)=O)nc2-c2ccccc2)ccc1=O [Example 160, 5-(1-Ethyl-6-oxo-1,6-dihydro-3-pyridazinyl)-4-phenyl-1,3-thiazole-2-carboxamide]",231 to 232.5
14,"C=CCn1nc(-c2sc(C(N)=O)nc2-c2ccccc2)ccc1=O [Example 162, 5-(1-Allyl-6-oxo-1,6-dihydro-3-pyridazinyl)-4-phenyl-1,3-thiazole-2-carboxamide]",198 to 199.5
15,"CC(C)n1nc(-c2sc(C(N)=O)nc2-c2ccc(F)cc2)ccc1=O [Example 165, 4-(4-Fluorophenyl)-5-(1-isopropyl-6-oxo-1,6-dihydro-3-pyridazinyl)-1,3-thiazole-2-carboxamide]",226.5 to 227.5
16,"COCCn1nc(-c2sc(C(N)=O)nc2-c2ccccc2)ccc1=O [Example 168, 5-[1-(2-Methoxyethyl)-6-oxo-1,6-dihydro-3-pyridazinyl]-4-phenyl-1,3-thiazole-2-carboxamide]",198 to 199.5
17,"CCCNC(=O)c1nc(-c2ccccc2)c(-c2ccc(=O)[nH]n2)s1 [Example 169, 5-(6-oxo-1,6-dihydro-3-pyridazinyl)-4-phenyl-N-propyl-1,3-thiazole-2-carboxamide]",232 to 233
